Laboratory results published in patent EP3495350B1, “COMPOUND INHIBITING FORMATION OF C-MYC/MAX/DNA COMPLEX” (National Cancer Center, priority 2016, dated 2018).

Assays:
KU19-19 = test: Cell based assay, cell viability (CellTiter-Glo), KU19-19; conditions: Homo sapiens, KU-19-19; 72 hours, 0 to 2 µM; read-out: cell based assay cell line 2 KU19-19 IC50
Protocol: (§1) Commercially available bladder cancer cell lines were treated with trypsin-EDTA and seeded in each well of a 96 well plate, followed by incubation for 24 hours. After incubation, candidate compounds were added to each well at a final concentration of 0 to 2 µM. The compound-treated cells were further incubated for 72 hours. Cell viability was measured using an ATP detection method (CellTiter-Glo Luminescent Cell Viability Assay, Promega).
(§2) The selectivity of the compounds of the present disclosure to cancer cells was evaluated in the same manner as described in "2. Cell based assay".

MBT-2 = test: Cell based assay, cell viability (CellTiter-Glo), MBT-2; conditions: 72 hours, 0 to 2 µM; read-out: cell based assay cell line 1 MBT-2 IC50
Protocol: as §1, §2

253J = test: Cell based assay, cell viability (CellTiter-Glo), 253J; conditions: Homo sapiens; 72 hours, 0 to 2 µM; read-out: cell based assay cell line 3 253J IC50
Protocol: as §1, §2

UM-UC-3 = test: Cell based assay, cell viability (CellTiter-Glo), UM-UC-3; conditions: Homo sapiens, UMUC3; 72 hours, 0 to 2 µM; read-out: cell based assay cell line 4 UM-UC-3 IC50
Protocol: as §1, §2

SMILES	IC50 (KU19-19) [nM]	IC50 (MBT-2) [nM]	IC50 (253J) [nM]	IC50 (UM-UC-3) [nM]
CC(=O)c1c([S+]([O-])Cc2ccc(S(F)(F)(F)(F)F)cc2)[nH]c2c(F)ccc(F)c2c1=O (stereo not drawn) [Compound 80, 3-acetyl-5,8-difluoro-2-((4-(pentafluoro-λ6-sulfanyl)benzyl)sulfinyl)quinolin-4(1H)-one]	> 2000	> 2000	> 2000	> 2000
CC(=O)c1c([S+]([O-])Cc2nonc2C)[nH]c2c(Br)ccc(Cl)c2c1=O (stereo not drawn) [Compound 106, 3-acetyl-8-bromo-5-chloro-2-(((4-methyl-1,2,5-oxadiazol-3-yl)methyl)sulfinyl)quinolin-4(1H)-one]	> 2000	> 2000	> 2000	> 2000
CC(=O)c1c([S+]([O-])Cc2ccc(OC(F)(F)F)cc2)[nH]c2c(Br)ccc(Cl)c2c1=O (stereo not drawn) [Compound 71, 3-acetyl-8-bromo-5-chloro-2-((4-(trifluoromethoxy)benzyl)sulfinyl)quinolin-4(1H)-one]	1600	1470	1110	1610
Cc1cc(C[S+]([O-])c2[nH]c3c(Cl)ccc(Cl)c3c(=O)c2C(=O)C2CC2)no1 (stereo not drawn) [Compound 97, 5,8-dichloro-3-(cyclopropanecarbonyl)-2-(((5 - methylisoxazol-3-yl)methyl)sulfinyl)quinolin-4(1H)-one]	1620	810	1200	1270
CC(C)C(=O)c1c([S+]([O-])Cc2ccc(SC(F)(F)F)cc2)[nH]c2c(F)ccc(F)c2c1=O (stereo not drawn) [Compound 85, 5,8-difluoro-3-isobutyryl-2-((4-((trifluoromethyl)thio)benzyl)sulfinyl)quinolin-4(1H)-one]	> 2000	> 2000	> 2000	> 2000
CC(=O)c1c([S+]([O-])Cc2cc(C)on2)[nH]c2c(Br)ccc(Cl)c2c1=O (stereo not drawn) [Compound 51, 3-acetyl-8-bromo-5-chloro-2-(((5-methylisoxazol-3-yl)methyl)sulfinyl)quinolin-4(1H)-one]	1260	760	1130	630
CC(=O)c1c([S+]([O-])Cc2ccc(C(F)(F)F)o2)[nH]c2c(Br)ccc(Cl)c2c1=O (stereo not drawn) [Compound 72, 3-acetyl-8-bromo-5-chloro-2-(((5-(trifluoromethyl)furan-2-yl)methyl)sulfinyl)quinolin-4(1H)-one]	1370	1010	830	820
CC(=O)c1c([S+]([O-])Cc2cnc3[nH]ccc3c2)[nH]c2c(Br)ccc(Cl)c2c1=O (stereo not drawn) [Compound 107, 2-(((1H-pyrrolo[2,3-b]pyridin-5-yl)methyl)sulfinyl)-3-acetyl-8-bromo-5-chloroquinolin-4(1H)-one]	> 2000	> 2000	> 2000	> 2000
CC(=O)c1c([S+]([O-])Cc2cc(Cl)ccc2Cl)[nH]c2c(Br)ccc(Cl)c2c1=O (stereo not drawn) [Compound 44, 3-acetyl-8-bromo-5-chloro-2-((2,5-dichlorobenzyl)sulfinyl)quinolin-4(1H)-one]	1270	1150	1240	970
CC(=O)c1c([S+]([O-])Cc2ccc([S+]([O-])C(F)(F)F)cc2)[nH]c2c(Br)ccc(Cl)c2c1=O (stereo not drawn) [Compound 64, 3-acetyl-8-bromo-5-chloro-2-((4-((trifluoromethyl)sulfinyl)benzyl)sulfinyl)quin olin-4(1H)-one]	1410	840	950	1060
O=C(c1c([S+]([O-])Cc2ccc(SC(F)(F)F)cc2)[nH]c2c(Br)ccc(Cl)c2c1=O)C1CC1 (stereo not drawn) [Compound 101, 8-bromo-5-chloro-3-(cyclopropanecarbonyl)-2-((4-((trifluoromethyl)thio)benzyl)sulfinyl)quinolin-4(1H)-one]	> 2000	> 2000	1820	1930
CC(=O)c1c([S+]([O-])Cc2ccc(C(C)(C)C)cc2)[nH]c2c(Br)ccc(Cl)c2c1=O (stereo not drawn) [Compound 60, 3-acetyl-8-bromo-2-((4-(tert-butyl)benzyl)sulfinyl)-5-chloroquinolin-4(1H)-one]	1560	> 2000	1710	> 2000
CC(=O)c1c([S+]([O-])Cc2ccc(C#N)cc2)[nH]c2c(Br)ccc(Cl)c2c1=O (stereo not drawn) [Compound 73, 4-(((3-acetyl-8-bromo-5-chloro-4-oxo-1,4-dihydroquinolin-2-yl)sulfinyl)methyl)benzonitrile]	2000	1000	1340	1620
CC(=O)c1c([S+]([O-])C(C)c2ccccc2)[nH]c2c(Br)ccc(Cl)c2c1=O (stereo not drawn) [Compound 26, 3-acetyl-8-bromo-5-chloro-2-((1-phenylethyl)sulfinyl)quinolin-4(1H)-one]	> 2000	> 2000	> 2000	> 2000
CC(=O)c1c([S+]([O-])Cc2ccc([N+](=O)[O-])cc2)[nH]c2c(Cl)ccc(Cl)c2c1=O (stereo not drawn) [Compound 57, 3-acetyl-5,8-dichloro-2-((4-nitrobenzyl)sulfinyl)quinolin-4(1H)-one]	1830	> 2000	1920	> 2000
CC(=O)c1c([S+]([O-])Cc2ccc(SC(F)(F)F)cc2)[nH]c2c(Cl)ccc(Cl)c2c1=O (stereo not drawn) [Compound 79, 3-acetyl-5,8-dichloro-2-((4-((trifluoromethyl)thio)benzyl)sulfinyl)quinolin-4(1H)-one]	> 2000	> 2000	> 2000	> 2000
COc1cc(C[S+]([O-])c2[nH]c3c(Br)ccc(Cl)c3c(=O)c2C(C)=O)cc(OC)c1 (stereo not drawn) [Compound 59, 3-acetyl-8-bromo-5-chloro-2-((3,5-dimethoxybenzyl)sulfinyl)quinolin-4(1H)-one]	1230	1300	1140	1370
CC(=O)c1c([S+]([O-])Cc2c(F)c(F)c(F)c(F)c2F)[nH]c2c(Br)ccc(Cl)c2c1=O (stereo not drawn) [Compound 78, 3-acetyl-8-bromo-5-chloro-2-(((perfluorophenyl)methyl)sulfinyl)quinolin-4(1H)-one]	> 2000	1530	1290	1390
O=C(c1ccccc1)c1c([S+]([O-])Cc2ccc(S(F)(F)(F)(F)F)cc2)[nH]c2c(F)ccc(F)c2c1=O (stereo not drawn) [Compound 87, 3-benzoyl-5,8-difluoro-2-((4-(pentafluoro-λ6-sulfanyl)benzyl)sulfinyl)quinolin-4(1H)-one]	> 2000	> 2000	> 2000	> 2000
Cc1cc(C[S+]([O-])c2[nH]c3c(Cl)ccc(Cl)c3c(=O)c2C(=O)c2ccccc2)no1 (stereo not drawn) [Compound 88, 3-benzoyl-5,8-dichloro-2-(((5-methylisoxazol-3-yl)methyl)sulfinyl)quinolin-4(1H)-one]	> 2000	> 2000	> 2000	> 2000
CC(=O)c1c([S+]([O-])Cc2ccc(SC(F)(F)F)cc2)[nH]c2c(Br)ccc(Cl)c2c1=O (stereo not drawn) [Compound 56, 3-acetyl-8-bromo-5-chloro-2-((4-((trifluoromethyl)thio)benzyl)sulfinyl)quinolin-4(1H)-one]	940	1180	1110	1250
CC(=O)c1c([S+]([O-])Cc2cccc(S(F)(F)(F)(F)F)c2)[nH]c2c(Br)ccc(Cl)c2c1=O (stereo not drawn) [Compound 77, 3-acetyl-8-bromo-5-chloro-2-((3-(pentafluoro-λ6-sulfanyl)benzyl)sulfinyl)quinolin-4(1H)-one]	1380	1450	900	1180
CC(=O)c1c([S+]([O-])Cc2ccc(F)cc2F)[nH]c2c(Br)ccc(Cl)c2c1=O (stereo not drawn) [Compound 29, 3-acetyl-8-bromo-5-chloro-2-((2,4-difluorobenzyl)sulfinyl)quinolin-4(1H)-one]	1680	1200	960	1130
CC(=O)c1c([S+]([O-])Cc2ccc(C(F)(F)F)o2)[nH]c2c(F)ccc(F)c2c1=O (stereo not drawn) [Compound 81, 3-acetyl-5,8-difluoro-2-(((5-(trifluoromethyl)furan-2-yl)methyl)sulfinyl)quinolin-4(1H)-one]	> 2000	> 2000	> 2000	> 2000
CC(=O)c1c([S+]([O-])Cc2ccc(Cl)cc2)[nH]c2c(Br)ccc(Cl)c2c1=O (stereo not drawn) [Compound 11, 3-acetyl-8-bromo-5-chloro-2-((4-chlorobenzyl)sulfinyl)quinolin-4(1H)-one]	> 2000	> 2000	1410	1490
Cc1cc(C[S+]([O-])c2[nH]c3c(Br)ccc(Cl)c3c(=O)c2C(=O)C2CC2)no1 (stereo not drawn) [Compound 96, 8-bromo-5-chloro-3-(cyclopropanecarbonyl)-2-(((5-methylisoxazol-3-yl)methyl)sulfinyl)quinolin-4(1H)-one]	> 2000	1060	1490	1630
CC(=O)c1c([S+]([O-])Cc2ccc(Cl)nc2)[nH]c2c(Br)ccc(Cl)c2c1=O (stereo not drawn) [Compound 104, 3-acetyl-8-bromo-5-chloro-2-(((6-chloropyridin-3-yl)methyl)sulfinyl)quinolin-4(1H)-one]	1500	710	870	1130
